What was measured:
Cys-34 residue of HSA = Cys-34 residue of HSA (Homo sapiens, UniProt P02768)
Method: UV-visible (UV-Vis) spectrophotometry was monitored on an Agilent Cary 8454 diode array spectrophotometer in the wavelength range between 190 and 1100 nm.
Interaction of complex 12 at the Cys-34 residue of HSA was investigated spectrophotometrically via the dithiodipyridine (DTDP) method described previously (Pichler et al., 2013). […] A first series of UV-Vis spectra (a) were recorded before addition of 110 μM DTDP and a second series of UV-Vis spectra (b) were recorded after addition of 110 μM DTDP and after another 40 min waiting. […] Blank experiment with compound 13 was carried out as well as a control experiment. The effect of protein unfolding on the thiol binding of complex 12 was studied by the addition of 0.5% (m/m) SDS to the protein prior to its reaction with the complex. This experiment allows to determine the amount of free Cys-34 residue of HSA as a function of the added equivalent of the complexes.

[1] = cited from earlier work

Chain of Cys-34 residue of HSA (P02768 25-609): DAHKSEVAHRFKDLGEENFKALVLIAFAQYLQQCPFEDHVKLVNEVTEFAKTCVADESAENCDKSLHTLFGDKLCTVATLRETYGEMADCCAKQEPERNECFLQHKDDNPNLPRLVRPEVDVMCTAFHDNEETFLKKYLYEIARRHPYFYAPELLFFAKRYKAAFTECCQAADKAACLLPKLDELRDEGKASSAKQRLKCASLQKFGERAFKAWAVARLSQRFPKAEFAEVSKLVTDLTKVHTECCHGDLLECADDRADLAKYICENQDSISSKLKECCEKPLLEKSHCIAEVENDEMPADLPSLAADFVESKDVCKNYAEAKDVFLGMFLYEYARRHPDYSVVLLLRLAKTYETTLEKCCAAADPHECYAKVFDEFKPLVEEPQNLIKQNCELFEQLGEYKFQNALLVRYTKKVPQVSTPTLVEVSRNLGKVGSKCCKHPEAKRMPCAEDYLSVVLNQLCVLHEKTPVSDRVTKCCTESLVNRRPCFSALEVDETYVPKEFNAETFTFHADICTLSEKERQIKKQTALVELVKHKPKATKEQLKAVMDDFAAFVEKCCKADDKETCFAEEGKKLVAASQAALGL

## Cc1ccnc(-c2cc(C)ccn2)c1.[Cl-].[Cl-].[Ru+2].c1ccc(-c2ccnc3c2ccc2c(-c4ccccc4)ccnc23)cc1.c1ccc(-c2ccnc3c2ccc2c(-c4ccccc4)ccnc23)cc1 [Compound 13, (4,4′-Dimethyl-2,2′-bipyridine)bis(4,7-diphenyl-1,10-phenanthroline)ruthenium(II) dichlorine]
Cys-34 residue of HSA; 133 μM HSA, 0-120 μM complex, 3 h or 30 min, pH=7.00 (PBS)
  Interaction with Cys-34 thiol group (free thiol content) of native HSA: affects barely the quantity of free thiol groups

## [Ru(bphen)2(Me-maleimidemethyl)](Cl)2 [Compound 12]
Cys-34 residue of HSA; 0.5% SDS as denaturing agent, 0.5 h incubation
  Interaction with Cys-34 thiol group of unfolded HSA: nearly quantitative interaction
Cys-34 residue of HSA; 3 h versus 30 min incubation with HSA
  Effect of incubation time on Cys-34 interaction: did not result in remarkable differences

## O=C1C=Cc2cccc3cccc1c23 [phenalenone]
[1]; solution in CH3CN
  Φ(1O2) of reference in CH3CN: 0.95

## [Cl-].[Cl-].[Ru+2].c1ccc(-c2ccccn2)nc1.c1ccc(-c2ccccn2)nc1.c1ccc(-c2ccccn2)nc1 [[Ru(bipy)3]Cl2]
[1]; solution in D2O / water
  Φ(1O2) of reference in D2O / water: 0.22

Reference: patent US12636366B2, “Ruthenium (II) complexes and conjugates thereof for use as photosensitizer agent in photodynamic therapy” (Paris Sciences et Lettres, priority 2019, dated 2026)
